Values belong to the compound of their own block, whether it stands above or below them. Starred links: 1 amine or outer side, 2 acyl side, 3 side chain; linkers in the order of their positions; H or OH if unused. Non-standard residues stand in square brackets, D forms with d. Residues, ends and D or L forms follow the SMILES beside them. *: point of attachment. X1 = O=C([C@H](Cc1ccc(Cc2ccccc2)cc1)N[*:1])[*:2]; Acetyl(2-naphthyloxy) = O=C(COc1ccc2ccccc2c1)*; Propanoyl(3-(3-pyridyl)) = O=C(CCc1cccnc1)*; Bip = N[C@@H](Cc1ccc(-c2ccccc2)cc1)C(=O)O; αMeW = C[C@](N)(Cc1c[nH]c2ccccc12)C(=O)O; 2Nal = N[C@@H](Cc1ccc2ccccc2c1)C(=O)O; Acetyl(2-thienyl) = O=C(Cc1cccs1)*; αMeF = C[C@](N)(Cc1ccccc1)C(=O)O; Tic = O=C(O)[C@@H]1Cc2ccccc2CN1
Experiments:
[1] = Stability of the compound in 25% human serum assessed as intact residual rate at 50 uM incubated for 180 mins at 37 degreeC; type: ADME, cell-free; settings: read-out: Stabilty
[2] = Stability of the compound in 25% human serum assessed as residual rate at 50 uM incubated for 10 mins at 37 degreeC; type: ADME, cell-free; settings: read-out: Stabilty
[3] = Selectivity index, ratio of EC50 for agonist activity for human NMUR2 expressed in CHO cells to EC50 for agonist activity for human NMUR1 expressed in CHO cells by calcium mobilization assay; type: cell-based
Neuromedin-U receptor 1 [4] = biological target: T1, Neuromedin-U receptor 1 (Homo sapiens, UniProt Q9HB89); assay: Agonist activity at human NMUR1 expressed in CHO cells assessed as intrinsic activity at 10^-6 to 10^-12 M by calcium mobilization assay relative to control; type: cell-based; settings: read-out: Intrinsic activity
T1 sequence (Q9HB89 whole entry): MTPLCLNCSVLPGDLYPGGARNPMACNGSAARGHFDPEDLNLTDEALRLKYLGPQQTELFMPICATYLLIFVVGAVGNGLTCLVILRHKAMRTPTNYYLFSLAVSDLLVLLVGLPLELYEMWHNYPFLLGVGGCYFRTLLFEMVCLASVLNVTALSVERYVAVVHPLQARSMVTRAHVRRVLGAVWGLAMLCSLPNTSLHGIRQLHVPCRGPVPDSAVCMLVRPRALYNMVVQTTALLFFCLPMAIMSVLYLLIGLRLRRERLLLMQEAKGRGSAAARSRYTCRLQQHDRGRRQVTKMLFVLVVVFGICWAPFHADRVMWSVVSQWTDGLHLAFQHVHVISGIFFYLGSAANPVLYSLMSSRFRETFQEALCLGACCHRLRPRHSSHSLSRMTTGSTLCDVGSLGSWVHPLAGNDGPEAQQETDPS

Neuromedin-U receptor 1 [5] = biological target: T1, Neuromedin-U receptor 1; assay: Agonist activity at human NMUR1 expressed in CHO cells at 10 nM by calcium mobilization assay relative to control; type: cell-based; settings: read-out: Activity
Neuromedin-U receptor 1 [6] = biological target: T1, Neuromedin-U receptor 1; assay: Agonist activity at human NMUR1 expressed in CHO cells by calcium mobilization assay; type: cell-based
Neuromedin-U receptor 2 [7] = biological target: T2, Neuromedin-U receptor 2 (Homo sapiens, UniProt Q9GZQ4); assay: Agonist activity at human NMUR2 expressed in CHO cells at 1000 nM by calcium mobilization assay relative to control; type: cell-based; settings: read-out: Activity
Neuromedin-U receptor 1 [8] = biological target: T1, Neuromedin-U receptor 1; assay: Agonist activity at human NMUR1 expressed in CHO cells at 10 nM by calcium mobilization assay; type: cell-based; settings: 0.01 µM
Neuromedin-U receptor 2 [9] = biological target: T2, Neuromedin-U receptor 2; assay: Agonist activity at human NMUR2 expressed in CHO cells at 10 nM by calcium mobilization assay; type: cell-based; settings: 0.01 µM
Neuromedin-U receptor 1 [10] = biological target: T1, Neuromedin-U receptor 1; assay: Agonist activity at human NMUR1 expressed in CHO cells at 100 nM by calcium mobilization assay relative to control; type: cell-based; settings: read-out: Activity
Neuromedin-U receptor 2 [11] = biological target: T2, Neuromedin-U receptor 2; assay: Agonist activity at human NMUR2 expressed in CHO cells by calcium mobilization assay; type: cell-based
[12] = Drug metabolism in 25% human serum assessed as M1 metabolite formation at 50 uM incubated for 180 mins at 37 degreeC by HPLC analysis; type: ADME, cell-free; settings: 3 h
[13] = Drug metabolism in 25% human serum assessed as M2 metabolite formation at 50 uM incubated for 180 mins at 37 degreeC by HPLC analysis; type: ADME, cell-free; settings: 3 h
Neuromedin-U receptor 2 [14] = biological target: T2, Neuromedin-U receptor 2; assay: Agonist activity at human NMUR2 expressed in CHO cells at 100 nM by calcium mobilization assay; type: cell-based; settings: 0.1 µM
[15] = biological target: T3, Neuromedin-U receptor 1 (Homo sapiens) (UniProt Q9HB89); assay: Partial agonist activity at human NMUR1 expressed in CHO cells assessed as intrinsic activity at 10^-6 to 10^-12 M by calcium mobilization assay relative to control; type: functional, cell-based; settings: filed as partial agonist, dose pM 1-1000000
T3 sequence (whole entry): T1 sequence (Q9HB89 whole entry)

Neuromedin-U receptor 1 [16] = biological target: T1, Neuromedin-U receptor 1; assay: Partial agonist activity at human NMUR1 expressed in CHO cells by calcium mobilization assay; type: functional, cell-based
[17] = Half life of the compound in 25% human serum; type: ADME, cell-free
Neuromedin-U receptor 2 [18] = biological target: T2, Neuromedin-U receptor 2; assay: Agonist activity at human NMUR2 expressed in CHO cells at 10 nM by calcium mobilization assay relative to control; type: cell-based; settings: read-out: Activity
Neuromedin-U receptor 1 [19] = biological target: T1, Neuromedin-U receptor 1; assay: Agonist activity at human NMUR1 expressed in CHO cells at 1000 nM by calcium mobilization assay relative to control; type: cell-based; settings: read-out: Activity

T2 sequence (Q9GZQ4 whole entry): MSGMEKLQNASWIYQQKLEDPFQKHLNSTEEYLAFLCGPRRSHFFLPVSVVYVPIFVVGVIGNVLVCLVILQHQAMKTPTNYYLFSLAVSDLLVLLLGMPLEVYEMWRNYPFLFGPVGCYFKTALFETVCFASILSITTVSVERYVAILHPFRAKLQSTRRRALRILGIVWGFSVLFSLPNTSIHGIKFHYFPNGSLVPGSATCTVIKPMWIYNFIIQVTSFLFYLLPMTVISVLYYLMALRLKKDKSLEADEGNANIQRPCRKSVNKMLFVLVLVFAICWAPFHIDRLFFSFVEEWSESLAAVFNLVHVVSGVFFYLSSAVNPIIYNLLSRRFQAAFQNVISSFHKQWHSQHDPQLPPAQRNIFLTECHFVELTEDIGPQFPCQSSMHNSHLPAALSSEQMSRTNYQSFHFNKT

remaining at 3 h, 50 µM [1]: 39%
Structure (SMILES): C[C@@](Cc1c[nH]c2ccccc12)(NC(=O)[C@H](Cc1c[nH]c2ccccc12)NC(=O)Cc1cccs1)C(=O)N[C@@H](CCCNC(=N)N)C(=O)N1CCC[C@H]1C(=O)N[C@@H](CCCNC(=N)N)C(=O)N[C@@H](CC(N)=O)C(N)=O ({Acetyl(2-thienyl)}-W[αMeW]RPRN-NH2)

remaining at 10 min, 50 µM [2]: 64%
Emax (Neuromedin-U receptor 1 [4]): 67%
activity at 0.01 µM (Neuromedin-U receptor 1 [5]): 30%
EC50 (Neuromedin-U receptor 1 [6]): 30 nM
activity at 1 µM (Neuromedin-U receptor 2 [7]): 48%
Structure (SMILES): N=C(N)NCCC[C@H](NC(=O)[C@@H]1CCCN1C(=O)[C@H](CCCNC(=N)N)NC(=O)[C@@H]1Cc2ccccc2CN1C(=O)COc1ccc2ccccc2c1)C(=O)N[C@@H](CC(N)=O)C(N)=O ({Acetyl(2-naphthyloxy)}-[Tic]RPRN-NH2)
Ratio EC50 [3]: 30

Activity (Neuromedin-U receptor 1 [8]): Not Active
Activity (Neuromedin-U receptor 2 [9]): Not Active
Structure (SMILES): C[C@@](Cc1ccccc1)(NC(=O)[C@H](Cc1ccc2ccccc2c1)NC(=O)CCc1cccnc1)C(=O)N[C@@H](CCCNC(=N)N)C(=O)N1CCC[C@H]1C(=O)N[C@@H](CCCNC(=N)N)C(=O)N[C@@H](CC(N)=O)C(N)=O ({Propanoyl(3-(3-pyridyl))}-[2Nal][αMeF]RPRN-NH2)

remaining at 10 min, 50 µM [2]: 95%
activity at 0.1 µM (Neuromedin-U receptor 1 [10]): 88%
Structure (SMILES): N=C(N)NCCC[C@H](NC(=O)[C@@H]1CCCN1C(=O)[C@H](CCCNC(=N)N)NC(=O)[C@H](Cc1ccc(Cc2ccccc2)cc1)NC(=O)[C@H](Cc1c[nH]c2ccccc12)NC(=O)Cc1cccs1)C(=O)N[C@@H](CC(N)=O)C(N)=O ({Acetyl(2-thienyl)}-W[X1]RPRN-NH2)

Emax (Neuromedin-U receptor 1 [4]): 75%
activity at 0.01 µM (Neuromedin-U receptor 1 [5]): 59%
EC50 (Neuromedin-U receptor 2 [11]): > 1000 nM
EC50 (Neuromedin-U receptor 1 [6]): 3.2 nM
Drug metabolism [12]: Metabolite_Detected
remaining at 3 h, 50 µM [1]: 84%
Drug metabolism [13]: Metabolite_Detected
Structure (SMILES): N=C(N)NCCC[C@H](NC(=O)[C@@H]1CCCN1C(=O)[C@H](CCCNC(=N)N)NC(=O)[C@H](Cc1ccc(-c2ccccc2)cc1)NC(=O)[C@H](Cc1ccc2ccccc2c1)NC(=O)CCc1cccnc1)C(=O)N[C@@H](CC(N)=O)C(N)=O ({Propanoyl(3-(3-pyridyl))}-[2Nal][Bip]RPRN-NH2)
Ratio EC50 [3]: > 300

remaining at 10 min, 50 µM [2]: 95%
remaining at 3 h, 50 µM [1]: 35%
Activity (Neuromedin-U receptor 2 [14]): Not Active
activity at 0.1 µM (Neuromedin-U receptor 1 [10]): 88%
Structure (SMILES): N=C(N)NCCC[C@H](NC(=O)[C@@H]1CCCN1C(=O)[C@H](CCCNC(=N)N)NC(=O)[C@H](Cc1ccc(-c2ccccc2)cc1)NC(=O)[C@H](Cc1c[nH]c2ccccc12)NC(=O)Cc1cccs1)C(=O)N[C@@H](CC(N)=O)C(N)=O ({Acetyl(2-thienyl)}-W[Bip]RPRN-NH2)

Intrinsic activity [15]: 71%
remaining at 10 min, 50 µM [2]: 35%
EC50 (Neuromedin-U receptor 1 [16]): 1.7 nM
half-life [17]: 20 min
activity at 0.01 µM (Neuromedin-U receptor 1 [5]): 61%
activity at 0.01 µM (Neuromedin-U receptor 2 [18]): 19%
Structure (SMILES): N=C(N)NCCC[C@H](NC(=O)[C@@H]1CCCN1C(=O)[C@H](CCCNC(=N)N)NC(=O)[C@H](Cc1ccccc1)NC(=O)[C@H](Cc1ccc2ccccc2c1)NC(=O)CCc1cccnc1)C(=O)N[C@@H](CC(N)=O)C(N)=O ({Propanoyl(3-(3-pyridyl))}-[2Nal]FRPRN-NH2)

remaining at 10 min, 50 µM [2]: 48%
Structure (SMILES): COc1ccc(C[C@H](NC(=O)[C@H](Cc2c[nH]c3ccccc23)NC(=O)Cc2cccs2)C(=O)N[C@@H](CCCNC(=N)N)C(=O)N2CCC[C@H]2C(=O)N[C@@H](CCCNC(=N)N)C(=O)N[C@@H](CC(N)=O)C(N)=O)cc1 ({Acetyl(2-thienyl)}-WY(Me)RPRN-NH2)

activity at 1 µM (Neuromedin-U receptor 1 [19]): 28%
Activity (Neuromedin-U receptor 1 [8]): Not Active
Activity (Neuromedin-U receptor 2 [9]): Not Active
Structure (SMILES): N=C(N)NCCC[C@H](NC(=O)[C@@H]1CCCN1C(=O)[C@H](CCCNC(=N)N)NC(=O)[C@H](Cc1ccc(-c2ccccc2)cc1)NC(=O)COc1ccc2ccccc2c1)C(=O)N[C@@H](CC(N)=O)C(N)=O ({Acetyl(2-naphthyloxy)}-[Bip]RPRN-NH2)

Reference: ChEMBL document CHEMBL4725299, “Design and synthesis of peptidic partial agonists of human neuromedin U receptor 1 with enhanced serum stability” (Bioorg Med Chem Lett, 2020)
